Assay results taken from patent US20070259948A1, “Compounds with antifungal properties and process thereof” (priority 2006, published 2007).
In brackets after ≈: the same amount, converted by molar mass.

Columns and labels:
Assay in all cases: Antifungal susceptibility testing (minimum inhibitory concentration), soyabean casein digest broth
Type in all cases: cell-based
C. albicans = conditions: Candida albicans; end points after 48 hours, visually / spectrophotometer; NI till x = no inhibition up to x; read-out: Activity against organisms In μg/ml, C. albicans (minimum inhibitory concentration)
Method: (§1) In vitro evaluation of antifungal activity can be performed by determining the minimum inhibitory concentration. Anti-fungal susceptibility testing of these anti-fungal compounds was done by conventional method using soyabean casein digest broth. Known anti-fungal agents like Fluconazole and amphotericin-B were used as positive control. End points were determined after 48 hours visually and by using Spectrophotometer wherever necessary. Different dilutions were tried and the set of experiments.

A. niger = conditions: Aspergillus niger; end points after 48 hours, visually / spectrophotometer; NI till x = no inhibition up to x; read-out: Activity against organisms In μg/ml, A. niger (minimum inhibitory concentration)
Method: as §1

F. proliferatum = conditions: Fusarium proliferatum; end points after 48 hours, visually / spectrophotometer; NI till x = no inhibition up to x; read-out: Activity against organisms In μg/ml, F. proliferatum (minimum inhibitory concentration)
Method: as §1

Row | Compound | MIC (C. albicans) | MIC (A. niger) | MIC (F. proliferatum)
1 | C=CCC(=O)OCC1C=C(c2cccc(Br)c2)C(=O)O1 (stereo not drawn) [1CC, 3-bromophenyl-5-allyloyloxymethyl-2H,5H-furan-2-one] | 4 µg/mL (≈ 11.9 µM) | 8 µg/mL (≈ 23.7 µM) | 2 µg/mL (≈ 5.93 µM)
2 | COc1ccc(C2=CC(COC(=O)c3cc(Br)c(Br)s3)OC2=O)cc1Br (stereo not drawn) [FE, 4-(3-bromo-4-methoxyphenyl)-5-oxo-2,5-dihydrofuran-2-ylmethyl 4,5-dibromothiophene-2-carboxylate] | 4 to 8 µg/mL (≈ 7.05 to 14.1 µM) | > 4 µg/mL | > 4 µg/mL
3 | O=C1OC(COC(=O)c2ccsc2)C=C1c1cccc(Cl)c1 (stereo not drawn) [1EB, 4-(3-chlorophenyl)-5-oxo-2,5-dihydrofuran-2-ylmethyl thiophene-3-carboxylate] | 4 µg/mL (≈ 11.9 µM) | 4 µg/mL (≈ 11.9 µM) | 2 µg/mL (≈ 5.97 µM)
4 | COc1ccc(C2=CC(COC(=O)c3cccs3)OC2=O)cc1Br (stereo not drawn) [1DE, 4-(3-bromo-4-methoxyphenyl)-5-oxo-2,5-dihydrofuran-2-ylmethyl thiophene-2-carboxylate] | > 2 µg/mL | > 2 µg/mL | > 2 µg/mL
5 | COc1ccc(C2=CC(COC(=O)CCCCCl)OC2=O)cc1Br (stereo not drawn) [1IE, 4-(3-bromo-4-methoxyphenyl)-5-oxo-2,5-dihydrofuran-2-ylmethyl 5-chlorovalerate] | > 8 µg/mL | > 8 µg/mL | > 8 µg/mL
6 | O=C1OC(COC(=O)c2ccccc2)C=C1c1cccc(Br)c1 (stereo not drawn) [1AC, 3-bromophenyl-5-benzoyloxymethyl-2H,5H-furan-2-one] | 2 µg/mL (≈ 5.36 µM) | 4 µg/mL (≈ 10.7 µM) | 0.5 µg/mL (≈ 1.34 µM)
7 | O=C1OC(COC(=O)c2cc(Br)c(Br)s2)C=C1c1cccc(Cl)c1 (stereo not drawn) [1FB, 4-(3-chlorophenyl)-5-oxo-2,5-dihydrofuran-2-ylmethyl 4,5-dibromothiophene-2-carboxylate] | 1 to 2 µg/mL (≈ 2.03 to 4.06 µM) | 2 to 4 µg/mL (≈ 4.06 to 8.12 µM) | 1 to 2 µg/mL (≈ 2.03 to 4.06 µM)
8 | O=C1OC(COC(=O)c2cccs2)C=C1c1cccc(Br)c1 (stereo not drawn) [1DC, 4-(3-bromophenyl)-5-oxo-2,5-dihydrofuran-2-ylmethyl thiophene-2-carboxylate] | 2 µg/mL (≈ 5.27 µM) | 8 µg/mL (≈ 21.1 µM) | 2 µg/mL (≈ 5.27 µM)
9 | O=C1OC(COC(=O)c2cccc(I)c2)C=C1c1cccc(Br)c1 (stereo not drawn) [1JC, 4-(3-bromophenyl)-5-oxo-2,5-dihydrofuran-2-ylmethyl 3-iodobenzoate] | 2 to 4 µg/mL (≈ 4.01 to 8.01 µM) | > 4 µg/mL | > 4 µg/mL
10 | COc1ccc(C2=CC(COC(=O)CCCl)OC2=O)cc1Br (stereo not drawn) [1GE, 4-(3-bromo-4-methoxyphenyl)-5-oxo-2,5-dihydrofuran-2-ylmethyl 3-chloropropionate] | 4 to 8 µg/mL (≈ 10.3 to 20.5 µM) | 4 to 8 µg/mL (≈ 10.3 to 20.5 µM) | 8 to 16 µg/mL (≈ 20.5 to 41.1 µM)
11 | C=CCC(=O)OCC1C=C(c2ccc(Cl)c(Cl)c2)C(=O)O1 (stereo not drawn) [1CA, 3,4-dichlorophenyl-5-allyloyloxymethyl-2H,5H-furan-2-one] | 2 µg/mL (≈ 6.11 µM) | 1 µg/mL (≈ 3.06 µM) | 1 µg/mL (≈ 3.06 µM)
12 | O=C1OC(COC(=O)c2ccccc2)C=C1c1ccc(Cl)c(Cl)c1 (stereo not drawn) [1AA, 3,4-dichlorophenyl-5-benzoyloxymethyl-2H,5H-furan-2-one] | 4 µg/mL (≈ 11 µM) | 2 µg/mL (≈ 5.51 µM) | 1 µg/mL (≈ 2.75 µM)
13 | O=C(CCCCl)OCC1C=C(c2cccc(Br)c2)C(=O)O1 (stereo not drawn) [1HC, 4-(3-bromophenyl)-5-oxo-2,5-dihydrofuran-2-ylmethyl 4-chlorobutyrate] | 1 to 2 µg/mL (≈ 2.68 to 5.35 µM) | 4 to 8 µg/mL (≈ 10.7 to 21.4 µM) | 1 to 2 µg/mL (≈ 2.68 to 5.35 µM)
14 | COc1ccc(C2=CC(COC(=O)CCCCl)OC2=O)cc1Br (stereo not drawn) [1HE, 4-(3-bromo-4-methoxyphenyl)-5-oxo-2,5-dihydrofuran-2-ylmethyl 4-chlorobutyrate] | > 4 µg/mL | > 4 µg/mL | > 4 µg/mL
15 | O=C1OC(COC(=O)c2ccccc2)C=C1c1cccc(Cl)c1 (stereo not drawn) [1AB, 3-chlorophenyl-5-benzoyloxymethyl-2H,5H-furan-2-one] | 2 µg/mL (≈ 6.08 µM) | 2 µg/mL (≈ 6.08 µM) | 0.5 µg/mL (≈ 1.52 µM)
16 | O=C(CCCl)OCC1C=C(c2cccc(Br)c2)C(=O)O1 (stereo not drawn) [1GC, 4-(3-bromophenyl)-5-oxo-2,5-dihydrofuran-2-ylmethyl 3-chloropropionate] | 2 µg/mL (≈ 5.56 µM) | 4 µg/mL (≈ 11.1 µM) | 2 µg/mL (≈ 5.56 µM)
17 | C=CCC(=O)OCC1C=C(c2ccc(OC)c(Br)c2)C(=O)O1 (stereo not drawn) [1CE, 3-bromo-4-methoxyphenyl-5-allyloyloxymethyl-2H,5H-furan-2-one] | 2 to 4 µg/mL (≈ 5.45 to 10.9 µM) | > 8 µg/mL | > 8 µg/mL
18 | COc1ccc(C2=CC(COC(=O)c3cccc(I)c3)OC2=O)cc1Br (stereo not drawn) [1JE, 4-(3-bromo-4-methoxyphenyl)-5-oxo-2,5-dihydrofuran-2-ylmethyl 3-iodobenzoate] | > 2 µg/mL | > 2 µg/mL | > 2 µg/mL
19 | O=C(CCCCl)OCC1C=C(c2cccc(F)c2)C(=O)O1 (stereo not drawn) [1HD, 4-(3-fluorophenyl)-5-oxo-2,5-dihydrofuran-2-ylmethyl 4-chlorobutyrate] | 1 to 2 µg/mL (≈ 3.2 to 6.4 µM) | 1 to 2 µg/mL (≈ 3.2 to 6.4 µM) | 1 to 2 µg/mL (≈ 3.2 to 6.4 µM)
20 | O=C1OC(COC(=O)c2cccs2)C=C1c1cccc(Cl)c1 (stereo not drawn) [1DB, 4-(3-chlorophenyl)-5-oxo-2,5-dihydrofuran-2-ylmethyl thiophene-2-carboxylate] | 2 µg/mL (≈ 5.97 µM) | 4 µg/mL (≈ 11.9 µM) | 1 µg/mL (≈ 2.99 µM)
21 | O=C(CCCl)OCC1C=C(c2cccc(Cl)c2)C(=O)O1 (stereo not drawn) [1GB, 4-(3-chlorophenyl)-5-oxo-2,5-dihydrofuran-2-ylmethyl 3-chloropropionate] | 2 µg/mL (≈ 6.35 µM) | 2 µg/mL (≈ 6.35 µM) | 4 µg/mL (≈ 12.7 µM)
22 | COc1ccc(C2=CC(COC(C)=O)OC2=O)cc1Br (stereo not drawn) [1BE, 3-bromo-4-methoxyphenyl-5-acetoxymethyl-2H,5H-furan-2-one] | 2 to 4 µg/mL (≈ 5.86 to 11.7 µM) | 4 to 8 µg/mL (≈ 11.7 to 23.4 µM) | 8 to 16 µg/mL (≈ 23.4 to 46.9 µM)
23 | COc1ccc(C2=CC(COC(=O)c3ccsc3)OC2=O)cc1Br (stereo not drawn) [1EE, 4-(3-bromo-4-methoxyphenyl)-5-oxo-2,5-dihydrofuran-2-ylmethyl thiophene-3-carboxylate] | > 2 µg/mL | > 2 µg/mL | > 2 µg/mL
24 | O=C1OC(COC(=O)c2cccc(I)c2)C=C1c1cccc(Cl)c1 (stereo not drawn) [1JB, 4-(3-chlorophenyl)-5-oxo-2,5-dihydrofuran-2-ylmethyl 3-iodobenzoate] | > 2 µg/mL | > 2 µg/mL | > 2 µg/mL
25 | O=C1OC(COC(=O)c2cccs2)C=C1c1ccc(Cl)c(Cl)c1 (stereo not drawn) [1DA, 4-(3,4-dichlorophenyl)-5-oxo-2,5-dihydrofuran-2-ylmethyl thiophene-2-carboxylate] | 2 µg/mL (≈ 5.42 µM) | 1 µg/mL (≈ 2.71 µM) | 2 µg/mL (≈ 5.42 µM)
26 | O=C(CCCCl)OCC1C=C(c2cccc(Cl)c2)C(=O)O1 (stereo not drawn) [1HB, 4-(3-chlorophenyl)-5-oxo-2,5-dihydrofuran-2-ylmethyl 4-chlorobutyrate] | 1 to 2 µg/mL (≈ 3.04 to 6.08 µM) | 2 to 4 µg/mL (≈ 6.08 to 12.2 µM) | 1 to 2 µg/mL (≈ 3.04 to 6.08 µM)
27 | O=C1OC(COC(=O)c2ccc[nH]2)C=C1c1cccc(Cl)c1 (stereo not drawn) [1KB, 4-(3-chlorophenyl)-5-oxo-2,5-dihydrofuran-2-ylmethyl pyrrole-2-carboxylate] | 0.5 to 1 µg/mL (≈ 1.57 to 3.15 µM) | 1 to 2 µg/mL (≈ 3.15 to 6.29 µM) | 1 to 2 µg/mL (≈ 3.15 to 6.29 µM)

Second part, the molecule after the results:

Row | MIC (C. albicans) | MIC (A. niger) | MIC (F. proliferatum) | Compound
28 | 1 to 2 µg/mL (≈ 1.86 to 3.72 µM) | 2 to 4 µg/mL (≈ 3.72 to 7.45 µM) | 1 to 2 µg/mL (≈ 1.86 to 3.72 µM) | O=C1OC(COC(=O)c2cc(Br)c(Br)s2)C=C1c1cccc(Br)c1 (stereo not drawn) [1FC, 4-(3-bromophenyl)-5-oxo-2,5-dihydrofuran-2-ylmethyl 4,5-dibromothiophene-2-carboxylate]
29 | > 2 µg/mL | > 2 µg/mL | > 2 µg/mL | COc1ccc(C2=CC(COC(=O)c3ccccc3)OC2=O)cc1Br (stereo not drawn) [1AE, 3-bromo-4-methoxyphenyl-5-benzoyloxymethyl-2H,5H-furan-2-one]
30 | 2 µg/mL (≈ 6.43 µM) | 4 µg/mL (≈ 12.9 µM) | 2 µg/mL (≈ 6.43 µM) | CC(=O)OCC1C=C(c2cccc(Br)c2)C(=O)O1 (stereo not drawn) [1BC, 3-bromophenyl-5-acetxymethyl-2H,5H-furan-2-one]
31 | 4 µg/mL (≈ 11.4 µM) | 2 µg/mL (≈ 5.72 µM) | 2 µg/mL (≈ 5.72 µM) | O=C(CCCl)OCC1C=C(c2ccc(Cl)c(Cl)c2)C(=O)O1 (stereo not drawn) [1GA, 4-(3,4-dichlorophenyl)-5-oxo-2,5-dihydrofuran-2-ylmethyl 3-chloropropionate]
32 | 1 to 2 µg/mL (≈ 2.75 to 5.5 µM) | 1 to 2 µg/mL (≈ 2.75 to 5.5 µM) | 1 to 2 µg/mL (≈ 2.75 to 5.5 µM) | O=C(CCCCl)OCC1C=C(c2ccc(Cl)c(Cl)c2)C(=O)O1 (stereo not drawn) [1HA, 4-(3,4-dichlorophenyl)-5-oxo-2,5-dihydrofuran-2-ylmethyl 4-chlorobutyrate]
33 | 1 to 2 µg/mL (≈ 3.2 to 6.4 µM) | 1 to 2 µg/mL (≈ 3.2 to 6.4 µM) | 1 to 2 µg/mL (≈ 3.2 to 6.4 µM) | O=C1OC(COC(=O)c2ccccc2)C=C1c1cccc(F)c1 (stereo not drawn) [1AD, 3-fluorophenyl-5-benzoyloxymethyl-2H,5H-furan-2-one]
34 | 1 to 2 µg/mL (≈ 4 to 7.99 µM) | 1 to 2 µg/mL (≈ 4 to 7.99 µM) | 1 to 2 µg/mL (≈ 4 to 7.99 µM) | CC(=O)OCC1C=C(c2cccc(F)c2)C(=O)O1 (stereo not drawn) [1BD, 3-fluorophenyl-5-acetxymethyl-2H,5H-furan-2-one]
35 | 1 to 2 µg/mL (≈ 2.76 to 5.52 µM) | 2 to 4 µg/mL (≈ 5.52 to 11 µM) | 1 to 2 µg/mL (≈ 2.76 to 5.52 µM) | O=C1OC(COC(=O)c2ccc[nH]2)C=C1c1cccc(Br)c1 (stereo not drawn) [1KC, 4-(3-bromophenyl)-5-oxo-2,5-dihydrofuran-2-ylmethyl pyrrole-2-carboxylate]
36 | 4 µg/mL (≈ 13.7 µM) | 8 µg/mL (≈ 27.3 µM) | 2 µg/mL (≈ 6.83 µM) | C=CCC(=O)OCC1C=C(c2cccc(Cl)c2)C(=O)O1 (stereo not drawn) [1CB, 3-chlorophenyl-5-allyloyloxymethyl-2H,5H-furan-2-one]
37 | > 4 µg/mL | > 4 µg/mL | > 4 µg/mL | O=C1OC(COC(=O)c2cc(Br)c(Br)s2)C=C1c1ccc(Cl)c(Cl)c1 (stereo not drawn) [1FA, 4-(3,4-dichlorophenyl)-5-oxo-2,5-dihydrofuran-2-ylmethyl 4,5-dibromothiophene-2-carboxylate]
38 | 2 µg/mL (≈ 5.27 µM) | 2 µg/mL (≈ 5.27 µM) | 1 µg/mL (≈ 2.64 µM) | O=C1OC(COC(=O)c2ccsc2)C=C1c1cccc(Br)c1 (stereo not drawn) [1EC, 4-(3-bromophenyl)-5-oxo-2,5-dihydrofuran-2-ylmethyl thiophene-3-carboxylate]
